For ten compounds, TGI and GI50 results are on record in PubChem BioAssay (NCI).

Among the test systems are A549 NSCLC; CAKI-1 renal; HOP-92 NSCLC; HT29 colon; IGROV1 ovarian; NCI-H23 lung; SK-MEL-5 melanoma; SW-620 colon; K-562 leukemia; SK-MEL-2 melanoma.
Experiment in all cases: DTP human tumour cell line panel, 48 h

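Interpolation was linear, between the two tested concentrations surrounding the appropriate level; five concentrations were tested over 48 hours in 96-well plates. At the GI50, growth is halved. At the TGI there is no net growth.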

Take `Cn1cc(C2NC(=O)c3ccccc3N2)c2ccccc21` (stereo not given): the concentration for total growth inhibition (TGI) is over 100 µM in the experiment with A549 NSCLC; over 100 µM in the experiment with CAKI-1 renal; over 100 µM with HOP-92 NSCLC; 0.86 µM in the experiment on HT29 colon; over 100 µM in the experiment with IGROV1 ovarian; over 100 µM in the experiment with NCI-H23 lung. Also, the total growth inhibition concentration (TGI) in the experiment with SK-MEL-5 melanoma is 5.64 µM; in the experiment on SW-620 colon, over 100 µM.

Turning to `Cc1c(C(Cc2ccccc2N(C)C(=O)/C=C\C(=O)O)c2c[nH]c3ccccc23)c2ccccc2n1C` (stereo not given), the concentration for total growth inhibition (TGI) with A549 NSCLC is 31.8 µM; in the experiment with CAKI-1 renal it was 36 µM; with HT29 colon it was 30.8 µM; with IGROV1 ovarian, 39.8 µM; in the experiment with K-562 leukemia, 54.7 µM; with NCI-H23 lung it was 32.8 µM. The TGI is 29.8 µM with SK-MEL-5 melanoma and 34.5 µM in the experiment with SW-620 colon.

On to `O=C1C=C(Nc2ccccc2)c2ccccc2C1=O`, for which the GI50 in the experiment on A549 NSCLC is 1.84 µM; with CAKI-1 renal it was 3.11 µM; with HOP-92 NSCLC, 2.73 µM; in the experiment with HT29 colon it was 2.35 µM; in the experiment on IGROV1 ovarian it was 2.78 µM; in the experiment with K-562 leukemia, 2.64 µM. In addition, the figures for the GI50 with NCI-H23 lung, in the experiment on SK-MEL-5 melanoma and in the experiment with SW-620 colon were 1.98 µM, 1.7 µM and 2.1 µM, respectively. In addition, the concentration for total growth inhibition (TGI) was found to be 4.06 µM in the experiment with A549 NSCLC; 13.7 µM in the experiment with CAKI-1 renal; 13.2 µM in the experiment with HOP-92 NSCLC; 5.17 µM with HT29 colon; 7.31 µM in the experiment on IGROV1 ovarian; 7.81 µM with K-562 leukemia. The figures for the concentration for total growth inhibition (TGI) in the experiment with NCI-H23 lung, with SK-MEL-5 melanoma and in the experiment on SW-620 colon were 4.91 µM, 3.12 µM and 5.33 µM, respectively.

For the compound `CC(C)=CCc1cc2c(cc1O)C1=C(C(=O)C3=C(NCCS3(=O)=O)C1=O)C(C=C(C)C)O2` (stereo not given), the GI50 in the experiment with A549 NSCLC was over 16.7 µM; with HOP-92 NSCLC, 6.89 µM; with HT29 colon it was 7.35 µM; in the experiment with IGROV1 ovarian, 3.69 µM; with K-562 leukemia, 5.02 µM; with NCI-H23 lung it was 5.8 µM. Also, the figures for the GI50 in the experiment on SK-MEL-2 melanoma, in the experiment with SK-MEL-5 melanoma and in the experiment on SW-620 colon were 4.34 µM, 3.35 µM and 5 µM, respectively. Also, the TGI with A549 NSCLC is over 16.7 µM; in the experiment with HOP-92 NSCLC, over 16.7 µM; in the experiment with HT29 colon, over 16.7 µM; with IGROV1 ovarian, 15 µM; in the experiment with K-562 leukemia, over 16.7 µM; in the experiment with NCI-H23 lung, over 16.7 µM. Besides, the total growth inhibition concentration (TGI) in the experiment on SK-MEL-2 melanoma is 15 µM; in the experiment on SK-MEL-5 melanoma it was 6.95 µM; with SW-620 colon, over 16.7 µM.

Consider `Cc1cc(N(CCC#N)CCC#N)ccc1/C=C(\NC(=O)/C=C/c1ccccc1)C(=O)N=[N+]=[N-]`, for which the concentration for total growth inhibition (TGI) in the experiment with A549 NSCLC, in the experiment with CAKI-1 renal, with HT29 colon, in the experiment on IGROV1 ovarian, in the experiment with K-562 leukemia and in the experiment with NCI-H23 lung was over 100 µM each time. In addition, the TGI with SK-MEL-2 melanoma, with SK-MEL-5 melanoma and in the experiment with SW-620 colon was over 100 µM throughout.

Turning to `O=S1OC(c2ccccc2)(c2ccccc2)C(c2ccccc2)(c2ccccc2)O1`, the TGI with A549 NSCLC, in the experiment with HOP-92 NSCLC, in the experiment with HT29 colon, with IGROV1 ovarian, in the experiment on K-562 leukemia and in the experiment with NCI-H23 lung was over 100 µM throughout. Further, the TGI in the experiment with SK-MEL-5 melanoma and with SW-620 colon was over 100 µM each time.

Take `CCOC(=O)c1noc2c1CCc1c-2cn(Cc2ccc(OC)cc2)c1-c1cc(OC)c(OC)c(OC)c1`: the GI50 was 3.8 µM in the experiment on A549 NSCLC; 2.72 µM in the experiment on HOP-92 NSCLC; 0.846 µM in the experiment on HT29 colon; 2.45 µM in the experiment with IGROV1 ovarian; 3.04 µM with NCI-H23 lung; 4.29 µM in the experiment on SK-MEL-2 melanoma. The results for the GI50 in the experiment on SK-MEL-5 melanoma and in the experiment on SW-620 colon were 0.493 µM and 0.497 µM, respectively. Also, the TGI in the experiment with A549 NSCLC, in the experiment on HOP-92 NSCLC, with HT29 colon, in the experiment on IGROV1 ovarian, in the experiment on NCI-H23 lung and with SK-MEL-2 melanoma was over 100 µM in each case. Moreover, the figures for the concentration for total growth inhibition (TGI) in the experiment with SK-MEL-5 melanoma and with SW-620 colon were 66.7 µM and over 100 µM, respectively.

Take `O=c1[nH]c2ccccc2n1C1CCNCC1`: the GI50 in the experiment with A549 NSCLC, with CAKI-1 renal, in the experiment on HT29 colon, in the experiment with IGROV1 ovarian, in the experiment with K-562 leukemia and in the experiment on NCI-H23 lung was over 100 µM each time. Also, the GI50 in the experiment with SK-MEL-2 melanoma, in the experiment on SK-MEL-5 melanoma and with SW-620 colon was over 100 µM each time. Moreover, the total growth inhibition concentration (TGI) in the experiment with A549 NSCLC, in the experiment on CAKI-1 renal, in the experiment with HT29 colon, in the experiment with IGROV1 ovarian, in the experiment with K-562 leukemia and in the experiment on NCI-H23 lung was over 100 µM each time. Also, the TGI in the experiment with SK-MEL-2 melanoma, in the experiment on SK-MEL-5 melanoma and in the experiment on SW-620 colon was over 100 µM in each case.

Consider `NC(N)NCCCc1cn2c(n1)C1CCCN1C(=O)C2Cc1ccccc1` (stereo not given), for which the TGI in the experiment with A549 NSCLC, in the experiment on CAKI-1 renal, in the experiment with HT29 colon, with IGROV1 ovarian, in the experiment with K-562 leukemia and in the experiment with NCI-H23 lung was over 100 µM each time. The total growth inhibition concentration (TGI) in the experiment with SK-MEL-2 melanoma, with SK-MEL-5 melanoma and in the experiment with SW-620 colon was over 100 µM in each case.

With `COc1cccc2c1nc(C(F)F)n2-c1nc(-c2ccc(NS(=O)(=O)CCN(C)C)cc2)nc(N2CCOCC2)n1`, the GI50 with A549 NSCLC was 0.174 µM; in the experiment on CAKI-1 renal, 0.168 µM; in the experiment with HT29 colon it was 0.0999 µM; in the experiment on IGROV1 ovarian, 0.0261 µM; in the experiment with K-562 leukemia it was 1.2 µM; with NCI-H23 lung, 0.206 µM. The GI50 is 0.195 µM in the experiment with SK-MEL-2 melanoma, 0.204 µM in the experiment with SK-MEL-5 melanoma and 0.341 µM in the experiment with SW-620 colon. Besides, the TGI is 4.33 µM with A549 NSCLC; 4.69 µM in the experiment with CAKI-1 renal; 4.39 µM with HT29 colon; 0.154 µM in the experiment with IGROV1 ovarian; 11.4 µM with K-562 leukemia; 23.3 µM with NCI-H23 lung. Further, the TGI was 2.5 µM in the experiment with SK-MEL-2 melanoma, 1.76 µM in the experiment on SK-MEL-5 melanoma and 6.78 µM in the experiment with SW-620 colon.

A word on the TGI: it is the concentration giving total growth inhibition. In general, GI50 refers to the concentration that inhibits growth by half.
